Source: patent US8415312B2, “Compound which is a nystatin derivative” (Biosergen AS, priority 2007, dated 2013)
Values after ≈ are worked out from the molar mass of the structure shown.

Tests used:
[1] = tested on: mice (C57B1/6xDBA/2)F1 B6D2F1; details: single injection into tail vein, probit analysis
Protocol: Male mice of hybrids of first generation (C57B1/6xDBA/2)F1 B6D2F1, weight 20-22 g., received from the Central farm. “Kryukovo” of Russian Academies of Medical Science (RAMS) were used. Animals were maintained in a vivarium in plastic cages (with hardwood bedding in environmentally controlled conditions: 24±1° C., 12/12 hours light/dark cycle) on a standard diet of bricketed forages with easy access to drinking water (ad libitum). After a 2-week quarantine period, healthy animals were used in experimental work.
The solutions were prepared as follows: dry antibiotic substances (5 mg) were mixed with dry sodium deoxycholate (4.1 mg) in a sterile glass vial. 10 mL of phosphate buffer (NaH2PO4—1.59 g; Na2HPO4—0.96 g; H2O—to 100 mL) was added to the mix and the suspension was immediately subjected to vigorous shaking for 10 minutes until homogeneous suspensions were formed.
Preparations of amphotericin B and S44HP were also prepared in the same way.
The antibiotic preparations were singly injected into the mice's tail vein within 1-1.5 hours after the preparation of solutions. […] Each antibiotic was used in a range of doses resulting in 0% to 100% lethality and a minimum of 3 intermediate doses. Animals were randomized into groups, each containing 6 mice.

[2] = tested on: Fusarium oxysporum VKM F-140; experiment: Antifungal susceptibility study (1), broth microdilution MIC; format: cell-based; details: lowest concentration preventing any visible growth, read at 48 hours, 35° C., RPMI 1640 pH 7.0
Protocol: (§1) ACROS ORGANICS, New Jersey, USA), pH 7.0, was used in study. […] Then these DMSO solutions were diluted 50-fold (first 10-fold and then 5-fold) in the test medium. […] The solutions were prepared just before using. The organisms used for susceptibility testing were: Candida albicans ATCC 14053, Cryptococcus humicolus ATCC 9949, Aspergillus niger ATCC 16404 and Fusarium oxysporum VKM F-140 (=CMI, IMI 90473). Organisms were stored on potato dextrose agar […] 50% glycerol solution at -70° C. For short-term storage, stock cultures were stored on agar […] 4° C. The cultures of yeasts were sub-cultured onto Sabouraud dextrose (SAB) agar and incubated for 24 hours at 35° C. (Candida albicans) or for 48 hours at 25° C. (Cryptococcus humicolus) to obtain a freshly grown pure culture. The cultures of moulds were sub-cultured onto potato dextrose agar and incubated for 7 days at 35° C. […] (Fusarium oxysporum) to ensure maximum sporulation. […] Finally, the suspensions were vortexed for 15 s to break up clumps of cells and then filtered through four layers of sterile gauze. The densities of conidial spore suspensions was measured at 530 nm and adjusted to 0.09-0.11 for Aspergillus niger and 0.15-0.17 for Fusarium oxysporum. These suspensions were diluted 1:50 with the standard medium. […] Inoculum quantitation was performed by plating dilution of the inoculum on Sabouraud dextrose agar to determine the viable number of CFU per milliliter. Sterile 96-well flat-bottomed microtitration plates were used for testing. 100 μl of diluted inocula were dispensed into each microdilution well containing 100 μl of the double dilutions of compounds. Drug-free and yeast/mould-free controls were included. Microdilution trays were incubated at 35° C. (Candida albicans and moulds) or 25° C. (Cryptococcus humicolus) without agitation and observed for the presence or absence of visible growth. […] Minimal inhibitory concentrations (MICs) were read at 48 hours.

[3] = tested on: Aspergillus niger ATCC 16404; experiment: as above; format: cell-based; details: lowest concentration preventing any visible growth, read at 48 hours, 35° C., RPMI 1640 pH 7.0
Protocol: as §1

[4] = tested on: Candida albicans ATCC 14053; experiment: as above; format: cell-based; details: lowest concentration preventing any visible growth, read at 48 hours, 35° C., RPMI 1640 pH 7.0
Protocol: (§2) ACROS ORGANICS, New Jersey, USA), pH 7.0, was used in study. […] Then these DMSO solutions were diluted 50-fold (first 10-fold and then 5-fold) in the test medium. […] The solutions were prepared just before using. The organisms used for susceptibility testing were: Candida albicans ATCC 14053, Cryptococcus humicolus ATCC 9949, Aspergillus niger ATCC 16404 and Fusarium oxysporum VKM F-140 (=CMI, IMI 90473). Organisms were stored on potato dextrose agar […] 50% glycerol solution at -70° C. For short-term storage, stock cultures were stored on agar […] 4° C. The cultures of yeasts were sub-cultured onto Sabouraud dextrose (SAB) agar and incubated for 24 hours at 35° C. (Candida albicans) or for 48 hours at 25° C. (Cryptococcus humicolus) to obtain a freshly grown pure culture. The cultures of moulds were sub-cultured onto potato dextrose agar and incubated for 7 days at 35° C. […] (Fusarium oxysporum) to ensure maximum sporulation. […] Inoculum quantitation was performed by plating dilution of the inoculum on Sabouraud dextrose agar to determine the viable number of CFU per milliliter. Sterile 96-well flat-bottomed microtitration plates were used for testing. 100 μl of diluted inocula were dispensed into each microdilution well containing 100 μl of the double dilutions of compounds. Drug-free and yeast/mould-free controls were included. Microdilution trays were incubated at 35° C. (Candida albicans and moulds) or 25° C. (Cryptococcus humicolus) without agitation and observed for the presence or absence of visible growth. […] Minimal inhibitory concentrations (MICs) were read at 48 hours.

[5] = tested on: Cryptococcus humicolus ATCC 9949; experiment: as above; format: cell-based; details: lowest concentration preventing any visible growth, read at 48 hours, 25° C., RPMI 1640 pH 7.0
Protocol: as §2

Structure (SMILES) | LD50 [1] [mg/kg] | MTD [1] [mg/kg] | MIC Fusarium oxysporum VKM F-140 [2] [µg/mL] | MIC Aspergillus niger ATCC 16404 [3] [µg/mL] | MIC Candida albicans ATCC 14053 [4] [µg/mL] | MIC Cryptococcus humicolus ATCC 9949 [5] [µg/mL]
CC1C=CC=CC=CC=CC=CC=CC=CC(OC2OC(C)C(O)C(N)C2O)CC2OC(O)(CC(O)CCCC(O)CC(O)CC(O)CC(=O)OC(C)C(C)C1O)CC(O)C2C(=O)NCCN(C)C.NC(CCC(=O)O)C(=O)O (centres unmarked) [Compound 27] | 20.6 | 10.8 | – | – | – | –
CC1C=CC=CC=CC=CC=CC=CC=CC(OC2OC(C)C(O)C(NCC3(O)OCC(O)C(O)C3O)C2O)CC2OC(O)(CC(O)C(O)CCC(O)CC(O)CC(O)CC(=O)OC(C)C(C)C1O)CC(O)C2C(=O)NCCCO (centres unmarked) [Compound 36] | – | – | 16 (≈ 14 µM) | 4 (≈ 3.5 µM) | 4 (≈ 3.5 µM) | 4 (≈ 3.5 µM)
CC1O[C@@H](O[C@H]2/C=C/C=C/C=C/C=C/C=C/C=C/C=C/[C@H](C)[C@@H](O)[C@@H](C)[C@H](C)OC(=O)C[C@H](O)C[C@H](O)C[C@H](O)CC[C@@H](O)[C@H](O)C[C@]3(O)C[C@H](O)[C@@H](C(=O)NCCN(C)C)[C@H](C2)O3)[C@H](O)C(NC(=O)CN(C)C)[C@@H]1O (some centres unmarked) [Compound 45] | – | – | 4 (≈ 3.71 µM) | 1 (≈ 0.926 µM) | 1 (≈ 0.926 µM) | 2 (≈ 1.85 µM)
CC1C=CC=CC=CC=CC=CC=CC=CC(OC2OC(C)C(O)C(NC(=O)C(N)CCCCN)C2O)CC2OC(O)(CC(O)C(O)CCC(O)CC(O)CC(O)CC(=O)OC(C)C(C)C1O)CC(O)C2C(=O)NCCCO (centres unmarked) [Compound 38] | – | – | 4 (≈ 3.61 µM) | 2 (≈ 1.8 µM) | 1 (≈ 0.901 µM) | 1 (≈ 0.901 µM)
CC1C=CC=CC=CC=CC=CC=CC=CC(OC2OC(C)C(O)C(NC(=O)c3ccc(CN)cc3)C2O)CC2OC(O)(CC(O)C(O)CCC(O)CC(O)CC(O)CC(=O)OC(C)C(C)C1O)CC(O)C2C(=O)NCCCN(C)C (centres unmarked) [Compound 35] | – | – | 4 (≈ 3.5 µM) | 4 (≈ 3.5 µM) | 2 (≈ 1.75 µM) | 2 (≈ 1.75 µM)
CC1C=CC=CC=CC=CC=CC=CC=CC(OC2OC(C)C(O)C(N(Cc3ccc(N(C)C)cc3)Cc3ccc(N(C)C)cc3)C2O)CC2OC(O)(CC(O)C(O)CCC(O)CC(O)CC(O)CC(=O)OC(C)C(C)C1O)CC(O)C2C(=O)O (centres unmarked) [Compound 20] | – | – | >16 | 4 (≈ 3.36 µM) | 2 (≈ 1.68 µM) | 2 (≈ 1.68 µM)
CC1C=CC=CC=CC=CC=CC=CC=CC(OC2OC(C)C(O)C(NC(=O)CN(C)C)C2O)CC2OC(O)(CC(O)C(O)CCC(O)CC(O)CC(O)CC(=O)OC(C)C(C)C1O)CC(O)C2C(=O)NCCCO (centres unmarked) [Compound 39] | – | – | 16 (≈ 15 µM) | 2 (≈ 1.88 µM) | 1 (≈ 0.938 µM) | 1 (≈ 0.938 µM)
CC1C=CC=CC=CC=CC=CC=CC=CC(OC2OC(C)C(O)C(NCc3ccc(N(C)C)cc3)C2O)CC2OC(O)(CC(O)C(O)CCC(O)CC(O)CC(O)CC(=O)OC(C)C(C)C1O)CC(O)C2C(=O)NCCCN(C)C (centres unmarked) [Compound 32] | – | – | 8 (≈ 7.01 µM) | 2 (≈ 1.75 µM) | 2 (≈ 1.75 µM) | 2 (≈ 1.75 µM)
CC1O[C@@H](O[C@H]2/C=C/C=C/C=C/C=C/C=C/C=C/C=C/[C@H](C)[C@@H](O)[C@@H](C)[C@H](C)OC(=O)C[C@H](O)C[C@H](O)C[C@H](O)CC[C@@H](O)[C@H](O)C[C@]3(O)C[C@H](O)[C@@H](C(=O)NCCN(C)C)[C@H](C2)O3)[C@H](O)C(NC(=O)c2ccc(CN)cc2)[C@@H]1O (some centres unmarked) [Compound 46] | – | – | 4 (≈ 3.55 µM) | 2 (≈ 1.77 µM) | 2 (≈ 1.77 µM) | 2 (≈ 1.77 µM)
COC(=O)C(C)NC(=O)C1C(O)CC2(O)CC(O)C(O)CCC(O)CC(O)CC(O)CC(=O)OC(C)C(C)C(O)C(C)C=CC=CC=CC=CC=CC=CC=CC(OC3OC(C)C(O)C(N)C3O)CC1O2 (centres unmarked) [Compound 10] | – | – | 8 (≈ 7.93 µM) | 4 (≈ 3.96 µM) | 2 (≈ 1.98 µM) | 2 (≈ 1.98 µM)
CC1C=CC=CC=CC=CC=CC=CC=CC(OC2OC(C)C(O)C(N)C2O)CC2OC(O)(CC(O)C(O)CCC(O)CC(O)CC(O)CC(=O)OC(C)C(C)C1O)CC(O)C2C(=O)NCCN(C)C.NC(CCC(=O)O)C(=O)O (centres unmarked) [Compound 28] | 22.1 | 14.7 | – | – | – | –
CC1O[C@@H](O[C@H]2/C=C/C=C/C=C/C=C/C=C/C=C/C=C/[C@H](C)[C@@H](O)[C@@H](C)[C@H](C)OC(=O)C[C@H](O)C[C@H](O)C[C@H](O)CC[C@@H](O)[C@H](O)C[C@]3(O)C[C@H](O)[C@@H](C(=O)NCCN(C)C)[C@H](C2)O3)[C@H](O)C(NCc2ccc(N(C)C)cc2)[C@@H]1O (some centres unmarked) [Compound 43] | – | – | 4 (≈ 3.55 µM) | 1 (≈ 0.887 µM) | 1 (≈ 0.887 µM) | 1 (≈ 0.887 µM)
CC1C=CC=CC=CC=CC=CC=CC=CC(OC2OC(C)C(O)C(NCc3ccc(N(C)C)cc3)C2O)CC2OC(O)(CC(O)C(O)CCC(O)CC(O)CC(O)CC(=O)OC(C)C(C)C1O)CC(O)C2C(=O)NCCCO (centres unmarked) [Compound 37] | – | – | 4 (≈ 3.59 µM) | 2 (≈ 1.79 µM) | 2 (≈ 1.79 µM) | 1 (≈ 0.897 µM)
CC1C=CC=CC=CC=CC=CC=CC=CC(OC2OC(C)C(O)C(NCC3(O)OCC(O)C(O)C3O)C2O)CC2OC(O)(CC(O)C(O)CCC(O)CC(O)CC(O)CC(=O)OC(C)C(C)C1O)CC(O)C2C(=O)NCCCN(C)C (centres unmarked) [Compound 30] | – | – | 4 (≈ 3.42 µM) | 1 (≈ 0.854 µM) | 1 (≈ 0.854 µM) | 1 (≈ 0.854 µM)
CC1C=CC=CC=CC=CC=CC=CC=CC(OC2OC(C)C(O)C(NCC3(O)OCC(O)C(O)C3O)C2O)CC2OC(O)(CC(O)C(O)CCC(O)CC(O)CC(O)CC(=O)OC(C)C(C)C1O)CC(O)C2C(=O)NCCCN(C)C (centres unmarked) [Compound 31, N-tagatopyronosyl S44HP DMAP amide] | – | – | 4 (≈ 3.42 µM) | 2 (≈ 1.71 µM) | 1 (≈ 0.854 µM) | 2 (≈ 1.71 µM)
